Results reported in ChEMBL document CHEMBL4130457, “Discovery of AZD-2098 and AZD-1678, Two Potent and Bioavailable CCR4 Receptor Antagonists” (ACS Med Chem Lett, 2017).
Converted amounts (≈) assume the structure as drawn. The source made the active and inactive calls. No cut-off for these calls is given here.

How the values were obtained:
[1] = Lipophilicity, log D of the compound; format: physicochemical; details: octanol/water
[2] = Solubility of the compound; format: physicochemical
[3] = molecular target: T1, C-C chemokine receptor type 4 (Mus musculus, UniProt P51680); experiment: Antagonist activity at mouse CCR4; format: functional
T1 sequence (P51680 whole entry): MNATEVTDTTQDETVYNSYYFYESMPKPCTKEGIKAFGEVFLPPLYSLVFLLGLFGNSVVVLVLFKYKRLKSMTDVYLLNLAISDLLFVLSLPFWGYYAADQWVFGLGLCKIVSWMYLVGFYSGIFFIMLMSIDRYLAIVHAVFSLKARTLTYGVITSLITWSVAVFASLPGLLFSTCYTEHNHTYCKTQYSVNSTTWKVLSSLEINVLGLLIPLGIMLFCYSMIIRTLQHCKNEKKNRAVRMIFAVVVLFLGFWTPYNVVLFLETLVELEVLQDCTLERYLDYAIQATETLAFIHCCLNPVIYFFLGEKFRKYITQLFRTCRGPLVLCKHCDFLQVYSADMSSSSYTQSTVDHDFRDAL

[4] = molecular target: T2, C-C chemokine receptor type 4 (Homo sapiens, UniProt P51679); experiment: Antagonist activity at recombinant human CCR4 expressed in CHO-K1 cells assessed as inhibition of CCL22 induced Ca2+ mobilization after 2 hrs by FMAT based fluorescence assay; format: functional, cell-based
T2 sequence (P51679 whole entry): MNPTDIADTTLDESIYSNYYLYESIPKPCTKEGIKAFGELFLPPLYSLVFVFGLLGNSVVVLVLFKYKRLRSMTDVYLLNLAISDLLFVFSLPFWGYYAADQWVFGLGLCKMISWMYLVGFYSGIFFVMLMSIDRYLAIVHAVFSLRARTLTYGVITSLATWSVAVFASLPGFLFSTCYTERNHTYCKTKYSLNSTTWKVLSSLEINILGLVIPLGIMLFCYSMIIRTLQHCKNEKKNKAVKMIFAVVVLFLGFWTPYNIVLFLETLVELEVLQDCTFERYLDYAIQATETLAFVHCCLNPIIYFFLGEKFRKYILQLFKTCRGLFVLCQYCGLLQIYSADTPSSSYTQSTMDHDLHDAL

[5] = molecular target: T3, C-X-C chemokine receptor type 1 (Homo sapiens) (UniProt P25024); experiment: Antagonist activity at CXCR1 (unknown origin) at 10 uM; format: functional
T3 sequence (whole entry): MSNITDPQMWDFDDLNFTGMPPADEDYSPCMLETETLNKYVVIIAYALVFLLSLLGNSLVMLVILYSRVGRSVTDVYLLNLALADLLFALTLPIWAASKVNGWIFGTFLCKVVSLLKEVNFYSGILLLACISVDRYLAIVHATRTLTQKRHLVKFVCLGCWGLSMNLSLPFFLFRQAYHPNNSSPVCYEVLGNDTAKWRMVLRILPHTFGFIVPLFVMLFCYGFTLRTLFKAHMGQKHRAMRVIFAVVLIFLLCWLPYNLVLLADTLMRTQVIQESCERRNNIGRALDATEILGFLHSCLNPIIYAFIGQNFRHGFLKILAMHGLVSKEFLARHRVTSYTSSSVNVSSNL

[6] = molecular target: T4, C-C chemokine receptor type 1 (Homo sapiens) (UniProt P32246); experiment: Antagonist activity at CCR1 (unknown origin) at 10 uM; format: functional
T4 sequence (whole entry): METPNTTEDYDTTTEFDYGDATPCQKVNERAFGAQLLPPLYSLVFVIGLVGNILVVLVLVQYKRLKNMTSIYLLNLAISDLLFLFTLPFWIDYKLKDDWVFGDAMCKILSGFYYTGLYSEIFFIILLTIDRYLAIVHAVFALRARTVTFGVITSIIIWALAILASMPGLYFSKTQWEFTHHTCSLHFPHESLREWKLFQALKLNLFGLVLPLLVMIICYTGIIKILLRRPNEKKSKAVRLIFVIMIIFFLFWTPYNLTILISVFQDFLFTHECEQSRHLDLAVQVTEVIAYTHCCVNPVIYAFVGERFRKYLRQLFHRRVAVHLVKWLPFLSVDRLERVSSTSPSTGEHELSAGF

[7] = molecular target: C-C chemokine receptor type 5 (Homo sapiens) (UniProt P51681); experiment: Antagonist activity at CCR5 (unknown origin) at 10 uM; format: functional
[8] = molecular target: T5, C-C chemokine receptor type 7 (Homo sapiens) (UniProt P32248); experiment: Antagonist activity at CCR7 (unknown origin) at 10 uM; format: functional
T5 sequence (whole entry): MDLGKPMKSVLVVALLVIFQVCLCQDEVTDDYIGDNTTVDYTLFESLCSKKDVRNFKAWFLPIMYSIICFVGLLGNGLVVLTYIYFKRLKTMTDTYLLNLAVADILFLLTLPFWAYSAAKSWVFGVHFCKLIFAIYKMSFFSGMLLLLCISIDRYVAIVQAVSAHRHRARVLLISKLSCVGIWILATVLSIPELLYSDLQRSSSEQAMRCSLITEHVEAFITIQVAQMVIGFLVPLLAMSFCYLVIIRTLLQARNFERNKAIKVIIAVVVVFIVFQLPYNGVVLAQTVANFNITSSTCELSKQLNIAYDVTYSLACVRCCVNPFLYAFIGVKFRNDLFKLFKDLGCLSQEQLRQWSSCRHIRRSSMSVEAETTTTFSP

[9] = Clearance in rat at 9 umol/kg, po or 3 umol/kg, iv; format: ADME, organism-based; details: in vivo
[10] = Clearance in dog at 9 umol/kg, po or 3 umol/kg, iv; format: ADME, organism-based, Canis lupus familiaris; details: in vivo
[11] = Volume of distribution at steady state in rat at 9 umol/kg, po or 3 umol/kg, iv; format: ADME, organism-based; details: in vivo, read-out: Vdss
[12] = Half life in rat at 9 umol/kg, po or 3 umol/kg, iv; format: ADME, organism-based; details: in vivo
[13] = Half life in dog at 9 umol/kg, po or 3 umol/kg, iv; format: ADME, organism-based, Canis lupus familiaris; details: in vivo
[14] = Oral bioavailability in rat at 9 umol/kg; format: ADME, organism-based; details: in vivo
[15] = molecular target: T6, C-C chemokine receptor type 4 (Homo sapiens) (UniProt P51679); experiment: Agonist activity at CCR4 (unknown origin) up to 10 uM; format: functional
T6 sequence (whole entry): T2 sequence (P51679 whole entry)

Rattus norvegicus [16] = experiment: Antiinflammatory activity in OVA-induced Brown Norway rat lung assessed as reduction in alveolitis administered po bid 1 hr prior to antigen challenge and every 12 hrs prior to termination 96 hrs post challenge by histopathological analysis; format: functional, organism-based
Rattus norvegicus [17] = experiment: Antiinflammatory activity in OVA-induced Brown Norway rat lung assessed as reduction in leukocyte trafficking in microvasculature administered po bid 1 hr prior to antigen challenge and every 12 hrs prior to termination 96 hrs post challenge by histopathological analysis; format: functional, organism-based
[18] = Terminal trough concentration in OVA-induced Brown Norway rat plasma at 15 umol/kg, po bid measured 12 hrs post last dose; format: ADME, organism-based; details: read-out: Cmin
[19] = Ratio of free plasma concentration in Brown Norway rat at 3 umol/kg to pIC50 for recombinant human CCR4 expressed in CHO-K1 cells; format: ADME, cell-based; details: in vivo
[20] = Ratio of free plasma concentration in Brown Norway rat at 15 umol/kg to pIC50 for recombinant human CCR4 expressed in CHO-K1 cells; format: ADME, cell-based; details: in vivo

Sequence of C-C chemokine receptor type 5 (Homo sapiens) (P51681 whole entry, looked up): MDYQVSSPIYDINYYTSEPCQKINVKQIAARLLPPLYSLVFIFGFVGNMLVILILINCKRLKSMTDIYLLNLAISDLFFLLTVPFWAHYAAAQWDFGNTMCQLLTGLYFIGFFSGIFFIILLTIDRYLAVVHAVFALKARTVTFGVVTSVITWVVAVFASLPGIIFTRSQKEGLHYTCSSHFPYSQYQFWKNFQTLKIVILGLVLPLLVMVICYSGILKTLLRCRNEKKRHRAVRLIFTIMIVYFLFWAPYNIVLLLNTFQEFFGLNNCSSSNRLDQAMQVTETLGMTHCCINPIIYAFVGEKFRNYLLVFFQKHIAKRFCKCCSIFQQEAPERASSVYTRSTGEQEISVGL

Question: With `COc1nccnc1NS(=O)(=O)c1cccc(Cl)c1Cl` as the compound, how does the logD [1] read?
Answer: 0.35

Question: And the solubility [2]?
Answer: 1500 µg/mL (≈ 4.49 mM)

Question: And the IC50 [3]?
Answer: 10 nM

Question: And the IC50 [4]?
Answer: 15.8 nM

Question: And the Activity [5]?
Answer: inactive

Question: And the Activity [6]?
Answer: inactive

Question: What about the Activity [7] of the same compound?
Answer: inactive

Question: And the Activity [8]?
Answer: inactive

Question: What about the clearance [9] of the same compound?
Answer: 2 mL/min/kg

Question: And the clearance [10]?
Answer: 1.5 mL/min/kg

Question: And the Vd [11]?
Answer: 0.2 L/kg

Question: And the half-life [12]?
Answer: 1.7 h

Question: And the half-life [13]?
Answer: 1 h

Question: What about the bioavailability [14] of the same compound?
Answer: 100%

Question: What about the Activity [15] of the same compound?
Answer: inactive

Question: And the Activity (Rattus norvegicus [16])?
Answer: Dose-dependent effect

Question: What about the Activity (Rattus norvegicus [17]) of the same compound?
Answer: Dose-dependent effect

Question: And the concentration at 12 h [18]?
Answer: 490 nM

Question: What about the Ratio [19] of the same compound?
Answer: 0.6

Question: And the Ratio [20]?
Answer: 9
